Source: US20250186475A1, “METHODS OF TREATING MEDICAL CONDITIONS USING ISLATRAVIR OR A RELATED COMPOUND” (ROME Therapeutics, Inc., priority 2022, published 2025)

How the values were obtained:
[1] = molecular target: T1, LINE1 reverse transcriptase (Homo sapiens, UniProt O00370); test: Stable artificial-intron Cis LINE1 reporter assay (HeLa Tet-On 3G); format: cell-based; conditions: HeLa L1 reporter cells, doxycycline induced, 72 h; read-out: IC50 for inhibition of FLuc luminescence
T1 construct: expressed in transfected cells
T1 sequence (O00370 whole entry, looked up): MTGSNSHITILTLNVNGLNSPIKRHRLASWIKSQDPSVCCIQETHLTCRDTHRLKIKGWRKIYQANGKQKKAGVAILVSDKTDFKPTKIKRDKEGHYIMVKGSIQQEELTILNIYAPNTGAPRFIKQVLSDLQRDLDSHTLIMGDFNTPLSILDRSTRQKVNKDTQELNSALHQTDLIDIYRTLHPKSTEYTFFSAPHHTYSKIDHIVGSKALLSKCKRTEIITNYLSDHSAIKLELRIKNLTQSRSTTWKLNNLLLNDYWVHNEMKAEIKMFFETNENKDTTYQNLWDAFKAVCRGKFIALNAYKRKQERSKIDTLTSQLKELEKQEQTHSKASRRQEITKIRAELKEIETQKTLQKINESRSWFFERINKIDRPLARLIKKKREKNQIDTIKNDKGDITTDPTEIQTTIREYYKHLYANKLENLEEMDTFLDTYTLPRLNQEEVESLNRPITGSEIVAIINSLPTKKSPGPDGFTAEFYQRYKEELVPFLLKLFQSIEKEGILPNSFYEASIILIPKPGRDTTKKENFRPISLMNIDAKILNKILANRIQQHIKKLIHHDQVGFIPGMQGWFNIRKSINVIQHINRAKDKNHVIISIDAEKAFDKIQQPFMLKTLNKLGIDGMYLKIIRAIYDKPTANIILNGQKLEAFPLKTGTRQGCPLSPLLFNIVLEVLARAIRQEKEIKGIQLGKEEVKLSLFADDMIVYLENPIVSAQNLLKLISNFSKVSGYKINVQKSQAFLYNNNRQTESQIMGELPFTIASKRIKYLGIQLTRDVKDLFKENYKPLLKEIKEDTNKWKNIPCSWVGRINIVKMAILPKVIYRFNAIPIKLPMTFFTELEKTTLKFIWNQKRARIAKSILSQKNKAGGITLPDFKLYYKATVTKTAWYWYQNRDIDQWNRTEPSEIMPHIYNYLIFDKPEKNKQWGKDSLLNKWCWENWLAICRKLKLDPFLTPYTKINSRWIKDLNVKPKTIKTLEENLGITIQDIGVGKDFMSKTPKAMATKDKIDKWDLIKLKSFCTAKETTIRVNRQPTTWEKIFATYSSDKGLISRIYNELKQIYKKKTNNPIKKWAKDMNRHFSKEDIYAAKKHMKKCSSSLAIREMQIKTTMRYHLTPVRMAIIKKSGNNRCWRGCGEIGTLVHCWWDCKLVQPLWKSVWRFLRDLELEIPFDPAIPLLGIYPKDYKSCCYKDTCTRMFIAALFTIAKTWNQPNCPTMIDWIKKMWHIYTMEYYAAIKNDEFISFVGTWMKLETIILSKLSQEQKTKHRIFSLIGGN
Text: A stable HeLa Tet-On 3G (Takara, cat no 631183) cell line expressing a bi-directional inducible LINE1 construct was generated as described in Xie, Y. et al. “Cell division promotes efficient retrotransposition in a stable L1 reporter cell line,” Mobile DNA (2013) 4:10. Single cell clones were screened for high Luciferase expression and the highest expression Firefly expressing clone was chosen for compound testing.
Test compound was serially diluted in DMSO and spotted in 96-well plates. Subsequently the HeLa L1 artificial-intron reporter cells were plated into the compound-containing wells (8,000 cells/well), and the cells were induced for reporter expression with doxycycline (Sigma cat no D9891) at a final concentration of 500 ng/mL. Luminescence was measured 72 h after plating using the Dual-Glo Luciferase Assay System (Promega cat no E2940) following the manufacturer's instructions. The Firefly Luciferase activity was used to report LINE1 activity.

SK-OV-3 cells = test: Cancer cell viability assay with 3D cell colonies (CellTiter-Glo), SK-OV-3; format: cell-based; conditions: Homo sapiens, SK-OV-3, 168 h; 3D tumorsphere growth, 7 days
Experimental: (§1) Ovarian cancer cell line SK-OV-3 cells were cultured in McCoy's 5a media containing 10% FBS. Ovarian cancer cell line OVCAR-8 cells were cultured in RPMI media containing 10% FBS. Additional cancer cell lines were cultured in the following media: • Ovarian cancer SW756 cells—L-15 (100% air)+10% FBS • Esophageal cancer TE-1 cells—RPMI-1640+10% FBS • Esophageal cancer KYSE-410 cells—RPMI-1640+5˜10% FBS • Esophageal cancer KYSE-70 cells—RPMI-1640+10% h.i.FBS. • Pharyngeal cancer FaDu cells—MEM+0.01 mM NEAA+10% FBS
(§2) Cell colony formation was tested using a 3D methylcellulose-based CellTiter-Glo (CTG) viability assay (Cat. No: G7573, Promega). Briefly, cells were inoculated into 96-well plates (at 1,500 cells per well) into a solution of 0.65% methylcellulose in growth media and incubated overnight at 37° C. in 5% CO2. The next day, serially diluted test compound (islatravir) or positive control (cisplatin, Cat. No. 6J015A89, Qilu Pharma) were added at the indicated concentrations, and the cells were incubated for 7 days. On day seven, 100 μL of CTG reagent was added, and the plates were incubated at room temperature for 20 min. Luminescence was read on an Envision Multi Label Reader according to manufacturer's instructions. IC50 values were determined using the following calculation: […]

TE-1 cells = test: Cancer cell viability assay with 3D cell colonies (CellTiter-Glo), TE-1; format: cell-based; conditions: Homo sapiens, TE-1, 168 h, 7 days
Experimental: as §1, §2

OVCAR-8 cells = test: Cancer cell viability assay with 3D cell colonies (CellTiter-Glo), OVCAR-8; format: cell-based; conditions: Homo sapiens, OVCAR-8, 168 h; 3D tumorsphere growth, 7 days
Experimental: as §1, §2

[2] = system: interferon-stimulated gene (ISG) expression; test: In vivo decitabine challenge model; parameters: species or system C57BL/6 mice; conditions: islatravir p.o. 0.6, 2.0, 6.0 mg/kg once daily with decitabine i.p. 5 mg/kg, Day 0 to Day 4
Experimental: Twenty 9-11 week old C57BL/6 mice were acclimated to the lab for at least 5 days. Islatravir was prepared in a 0.5% methylcellulose solution for p.o. administration. Decitabine (Sigma) was dissolved in sterile PBS (pH 7.4) and dosed within 30 minutes of preparation of the solution. Doses of both islatravir and decitabine were administered once a day, every day from Day 0 to Day 4. On Day 0, mice were split into four groups of five mice and given their first dose of decitabine (i.p., 5 mg/kg) and compound 23. Dosing groups were: [table] Decitabine and islatravir were administered daily from Day 0 to Day 4. All mice were euthanized 1 hour after the last dose administration on Day 4. Spleens, liver, and terminal colon were collected, along with plasma from each animal. The fold changes in interferon-stimulated gene (ISG) expression was calculated by first normalizing to GAPDH gene using the Delta CT method. The CT (gene of interest)—CT (reference gene) was calculated to generate a delta CT for all samples. The fold change was then calculated by taking the […](Delta CT(control)−Delta CT (experimental). The control in this example was the PBS control animal group. The Taqman duplex assay (Thermo Fisher 4331182 and 4448489) was used according to the manufacturer's instructions to determine levels of GAPDH v. IFIT2.

[3] = system: THP1-Dual™ KO-TREX1 cells; test: CellTiter-Glo cell viability in THP1 TREX1 KO cells; format: cell-based; conditions: Homo sapiens, 120 h, in the presence of 1 μM 5-aza-2′-deoxycytidine, five days, read-out: CellTiter-Glo inhibition IC50
Experimental: THP1-Dual™ KO-TREX1 cells were purchased from Invivogen (cat #thpd-kotrex). The THP1-Dual™ KO-TREX1 cells were cultured in RPMI 1640, 10% heat-inactivated fetal bovine serum, 25 mM HEPES, 10 μg/mL Blasticidin, and 100 μg/mL Zeocin. THP1-Dual™ KO-TREX1 cells were treated with a dose titration of test compound in the presence of 1 μM 5-aza-2′-deoxycytidine (Sigma, cat #189825). Type 1 Interferon and cell viability were assessed after five days of treatment.
Stock solution of test compound was prepared in DMSO followed by a three-fold dilution in DMSO. Additional 50× dilution was prepared in cell culture media for each dilution. 10 μL of diluted test compound was then added to a 384-well plate.
THP1-Dual™ KO-TREX1 cells were treated with 1 μM 5-aza-2′-deoxycytidine. THP1-Dual™ KO-TREX1 cells (50 μL) were added to each well of the 384-well plate containing test compound titration at 10,000 cells/well. Cells were incubated at 37° C., 5% CO2 in a humidified incubator for five days. […] Luminescence was detected on a plate reader according to manufacturer's instructions. […]
The remaining cells were assessed for cell viability by adding 30 μl of CellTiter-Glo (Promega, G9683) solution to each well, and placed on a shaker for 10 minutes at room temperature. Luminescence was detected on a plate reader, according to manufacturer's instructions. […]

IC50 [1]: 0.00069 µM
IC50 (SK-OV-3 cells): 6.54 µM
IC50 (TE-1 cells): ≤ 10 µM
IC50 (OVCAR-8 cells): 1.95 µM
IC50 [3]: > 20 µM
Compound: C#C[C@]1(CO)O[C@@H](n2cnc3c(N)nc(F)nc32)C[C@@H]1O [Islatravir, (2R,3S,5R)-5-(6-amino-2-fluoro-9H-purin-9-yl)-2-ethynyl-2-(hydroxymethyl)tetrahydrofuran-3-ol]
change in ISG response [2]: showed the change in ISG response
